Assay results reported in publication PMC8843131, “Inhibition studies of bacterial α-carbonic anhydrases with phenols” (Journal of Enzyme Inhibition and Medicinal Chemistry, 2022).
Read-outs that look alike come from different tables or passages of the source.

Columns and labels:
NgCAα = target: T1, NgCAα (Neisseria gonorrhoeae, UniProt Q50940); assay: stopped-flow CO2 hydrase assay; type: biochemical
T1 construct: gene cah; recombinant, obtained in-house as described earlier
T1 sequence (Q50940 27-252): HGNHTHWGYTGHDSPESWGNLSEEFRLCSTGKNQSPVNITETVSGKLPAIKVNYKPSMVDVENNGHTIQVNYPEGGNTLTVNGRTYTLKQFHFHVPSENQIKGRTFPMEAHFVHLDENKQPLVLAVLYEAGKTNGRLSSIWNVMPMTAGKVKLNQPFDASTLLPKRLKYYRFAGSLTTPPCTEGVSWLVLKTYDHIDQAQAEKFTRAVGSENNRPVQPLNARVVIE

VchCAα = target: T2, VchCAα (Vibrio cholerae, UniProt Q9KMP6); assay: stopped-flow CO2 hydrase assay; type: biochemical; conditions: read-out: KI (μM)^a / VchCAα; CO2 substrate 1.7-17 mM, 10 mM HEPES pH 7.4, 10 mM NaClO4, 15 min preincubation
T2 construct: gene VC_A0274
T2 sequence (Q9KMP6 21-239 limits assumed): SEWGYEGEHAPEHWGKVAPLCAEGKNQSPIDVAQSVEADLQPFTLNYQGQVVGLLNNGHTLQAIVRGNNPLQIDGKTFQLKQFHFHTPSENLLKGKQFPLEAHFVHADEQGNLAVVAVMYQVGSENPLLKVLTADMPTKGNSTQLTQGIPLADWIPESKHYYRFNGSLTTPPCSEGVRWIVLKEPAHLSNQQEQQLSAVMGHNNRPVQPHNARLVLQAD

Row | Structure (SMILES) | Ki (NgCAα) [µM] | Ki (VchCAα) [µM] | Ki (NgCAα; CO2 substrate 1.7-17 mM, 10 mM HEPES pH 7.4, 10 mM NaClO4, 15 min preincubation) [µM]
1 | O=C(O)c1ccc(O)cc1 [compound 11, 4-hydroxy-benzoic acid] | 8.7 | 3.5 | –
2 | O=C(O)/C=C/c1ccc(O)cc1 [compound 21, 21] | 10 | 40.5 | –
3 | Oc1ccccc1O [compound 2, 2] | 5.3 | 20.3 | –
4 | O=C(O)c1c(O)cccc1O [compound 19, 19] | 33.1 | 49.6 | –
5 | N#Cc1ccc(O)cc1 [compound 9, 4-cyanophenol] | – | 17.2 | 24.2
6 | CC(=O)Nc1ccc(O)cc1 [compound 8, paracetamol] | 1.5 | 7 | –
7 | Nc1cc(O)ccc1Cl [compound 13, 3-amino-4-chlorophenol] | 0.8 | 0.7 | –
8 | Nc1ccc(O)cc1 [compound 7, 7] | 6 | 10.6 | –
9 | Nc1cccc(O)c1 [compound 6, 3-aminophenol] | 1.7 | 3.9 | –
10 | Oc1ccc(O)cc1 [compound 4, 4] | 4.7 | 8.4 | –
11 | Oc1ccc(F)cc1F [compound 15, 15] | 35.9 | 36.6 | –
12 | O=C(O)c1cc(O)ccc1O [compound 20, 20] | 16.3 | 7.3 | –
13 | Oc1cccc(O)c1 [compound 3, 3] | 2.2 | 8.6 | –
14 | Oc1ccc(O)c(O)c1 [compound 5, 5] | 3.9 | 9.4 | –
15 | O=C(O)c1ccc(O)c(O)c1 [compound 18, 3,4-dihydroxybenzoic acid] | 9.3 | 13.8 | –
16 | O=C(O)/C=C/c1ccc(O)c(O)c1 [compound 22, caffeic acid] | 76 | 78.1 | –
17 | OCc1ccc(O)cc1 [compound 12, 4-hydroxy-benzylalcohol] | 0.6 | 1.2 | –
18 | Oc1cc(F)cc(F)c1 [compound 16, 3,5-difluorophenol] | 3.7 | 4.9 | –
19 | O=C(O)c1ccccc1O [compound 10, salicylic acid] | 43.8 | 39.1 | –
20 | Oc1ccccc1 [compound 1, phenol] | 0.9 | 0.8 | –
21 | Nc1ccc(O)c(Cl)c1 [compound 14, 14] | 71.5 | 81.6 | –
